Measurements published in patent US7754866B2 (Arena Pharmaceuticals, Inc., priority 1997, dated 2010).
Read-outs that look alike come from different tables or passages of the source.

Tests used:
[1] = molecular target: T1, wild type human 5HT2A receptor (Homo sapiens, UniProt P28223); experiment: Competitive binding assay, [3H]LSD, WT 5HT2A
T1 construct: expressed in transfected cells; host or cells: COS-7 cells, pCMV vector

[2] = molecular target: T2, human mutated 5HT2A receptor, AP-3 (Homo sapiens, UniProt P28223, T25N); experiment: Inositol phosphate accumulation assay, AP-3; assay type: cell-based; settings: for remaining activity at 10 µM: read-out: IP3 % of Control;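 for all read-outs here: transfected 293 cells prelabeled with 3H-inositol, exposed to compound 120 min at 37 °C with LiCl and pargyline, inositol trisphosphates isolated by anion exchange and counted by scintillation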
T2 construct: Inositol Phosphate Accumulation AP-3 IC50 Value (nM); other: several concentrations; IP3 % of Control; other: one concentration of 10 μM, triplicate; control without test compound

[3] = competitive binding using LSD, read-out: WT 5HT2A LSD IC50
[4] = one concentration of 10 μM, triplicate, control without test compound
[5] = several concentrations, read-out: IP3 AP-3 IC50

T1 sequence (P28223 whole entry T25N/H452Y): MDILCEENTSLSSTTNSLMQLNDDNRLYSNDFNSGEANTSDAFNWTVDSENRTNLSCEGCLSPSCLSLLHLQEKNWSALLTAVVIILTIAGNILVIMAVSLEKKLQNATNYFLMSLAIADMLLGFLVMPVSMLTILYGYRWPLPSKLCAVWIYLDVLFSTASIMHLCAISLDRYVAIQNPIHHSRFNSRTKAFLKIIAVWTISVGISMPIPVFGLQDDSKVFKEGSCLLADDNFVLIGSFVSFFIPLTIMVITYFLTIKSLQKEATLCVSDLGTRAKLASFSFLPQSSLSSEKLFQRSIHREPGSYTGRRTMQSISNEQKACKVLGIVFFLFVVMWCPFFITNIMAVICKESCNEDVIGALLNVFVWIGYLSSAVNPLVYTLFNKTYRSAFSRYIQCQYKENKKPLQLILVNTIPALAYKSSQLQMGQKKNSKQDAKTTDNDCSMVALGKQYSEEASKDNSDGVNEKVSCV
T2 sequence (P28223 whole entry T25N, looked up): as the sequence (P28223 whole entry T25N/H452Y) above, with Y452H counted along it

| Compound | IC50 [1, 3] [nM] | remaining activity at 10 µM [2, 4] [%] | other results |
| --- | --- | --- | --- |
| Cn1cc(Br)c(-c2cccc(NC(=O)Nc3ccc(C(C)(C)C)cc3)c2)n1 [Compound 116119, N-[4-(tert-butyl)phenyl]{[3-(4-bromo-1-methylpyrazol-3-yl)phenyl]amino}carboxamide] | 476 | 17 | – |
| Cn1cc(Br)c(-c2cccc(NC(=O)Nc3ccccc3C#N)c2)n1 [Compound 116148, {[3-(4-bromo-1-methylpyrazol-3-yl)phenyl]-amino}-N-(2-cyanophenyl)carboxamide] | 348 | 30 | – |
| Cn1cc(Br)c(-c2cccc(NC(=O)NCc3ccccc3)c2)n1 [Compound 116143, N-[3-(4-bromo-1-methylpyrazol-3-yl)phenyl]-[phenylmethylamino]carboxamide] | 47 | – | IC50 [2, 5]: 0.12 µM |
| Cn1cc(Br)c(-c2cccc(NC(=O)Nc3ccc(Cl)cc3)c2)n1 [Compound 116081, N-[3-(4-bromo-1-methylpyrazol-3-yl)phenyl][(4-chlorophenyl)amino]carboxamide] | 11 | – | difference in selectivity preference (IC50 values) for the 5HT2A receptor compared with the 5HT2C receptor ([1]; 5HT2A versus 5HT2C): 100 fold; remaining activity at 10 µM [2]: 10%; IC50 [2, 5]: 0.0032 µM |
| Cn1cc(Br)c(-c2cccc(NC(=O)Nc3ccccc3Cl)c2)n1 [Compound 116108, {[3-(4-bromo-1-methylpyrazol-3-yl)phenyl]-amino}-N-[2-chlorophenyl)carboxamide] | 249 | 6 | – |
| Cn1cc(Br)c(-c2cccc(NC(=O)NCc3ccc(F)cc3)c2)n1 [Compound 116182, N-[3-(4-bromo-1-methylpyrazol-3-yl)phenyl]-[{(4-fluorophenyl)methyl}amino]carboxamide] | 132 | – | IC50 [2, 5]: 0.089 µM |
| Cn1cc(Br)c(-c2cccc(NC(=O)OC(C)(C)C)c2)n1 [Compound 116192] | – | – | IC50 [1]: 14 nM; IC50 ([2]; Inositol Phosphate Accumulation AP-3 IC50 Value (μM)): 0.057 µM |
| Cn1cc(Br)c(-c2cccc(NC(=O)Nc3ccccc3OC(F)(F)F)c2)n1 [Compound 116087, {[3-(4-bromo-1-methylpyrazol-3-yl)phenyl]-amino}-N-[2-(trifluoromethoxy)phenyl]carboxamide] | 200 | 11 | – |
| Cn1cc(Br)c(-c2cccc(NC(=O)Nc3ccccc3[N+](=O)[O-])c2)n1 [Compound 116089, {[3-(4-bromo-1-methylpyrazol-3-yl)phenyl]-amino}-N-(2-nitrophenyl)carboxamide] | 238 | 27 | – |
| Cn1cc(Br)c(-c2cccc(NC(=O)Cc3ccc([N+](=O)[O-])cc3)c2)n1 [Compound 116177, N-[3-(4-bromo-1-methylpyrazol-3-yl)phenyl]-2-(4-nitrophenyl)acetamide] | 108 | – | IC50 [2, 5]: 0.061 µM |
| COc1ccc(CNC(=O)Nc2cccc(-c3nn(C)cc3Br)c2)cc1 [Compound 116189, N-[3-(4-bromo-1-methylpyrazol-3-yl)phenyl][{(4-methoxyphenyl)methyl}amino]carboxamide] | 102 | – | – |
| Cn1cc(Br)c(-c2cccc(NC(=O)Cc3ccc(OC(F)(F)F)cc3)c2)n1 [Compound 116137, N-[3-(4-bromo-1-methylpyrazol-3-yl)phenyl]-2-[4-(trifluoromethoxy)-phenyl]acetamide] | 106 | – | – |
| COc1cc(CNC(=O)Nc2cccc(-c3nn(C)cc3Br)c2)cc(OC)c1OC [Compound 116184, N-[3-(4-bromo-1-methylpyrazol-3-yl)phenyl]-[{(3,4,5-trimethoxyphenyl)methyl}amino]-carboxamide] | 2960 | – | – |
| Cc1ccccc1CNC(=O)Nc1cccc(-c2nn(C)cc2Br)c1 [Compound 116185, N-[3-(4-bromo-1-methylpyrazol-3-yl)phenyl][{(2-methylphenyl)methyl}amino]carboxamide] | 769 | – | – |
| COc1ccc(CNC(=O)Nc2cccc(-c3nn(C)cc3Br)c2)cc1OC [Compound 116183, N-[3-(4-bromo-1-methylpyrazol-3-yl)phenyl]-[{(3,4-dimethoxyphenyl)methyl}amino-]carboxamide] | 1010 | – | – |
